Test results reported in ChEMBL document CHEMBL1255213, “Bottromycin derivatives: efficient chemical modifications of the ester moiety and evaluation of anti-MRSA and anti-VRE activities” (2010).
In brackets after ≈: the same amount, converted by molar mass.

Tests used:
Assay type in all cases: functional
Enterococcus faecium [1] = assay: Antimicrobial activity against Enterococcus faecium NCTC 12201 by standard serial-dilution technique
Enterococcus faecium [2] = assay: Antimicrobial activity against Enterococcus faecium NCTC 12203 by standard serial-dilution technique
Staphylococcus aureus [3] = assay: Antimicrobial activity against methicillin-resistant Staphylococcus aureus assessed as rate of residual activity; parameters: concentration or dose not given beside the values
Staphylococcus aureus [4] = assay: Antimicrobial activity against Staphylococcus aureus FDA209P by standard serial-dilution technique
Staphylococcus aureus [5] = assay: Antimicrobial activity against Staphylococcus aureus Smith by standard serial-dilution technique
Staphylococcus aureus [6] = assay: Antimicrobial activity against methicillin-resistant Staphylococcus aureus HH1 by standard serial-dilution technique
Staphylococcus aureus [7] = assay: Antimicrobial activity against methicillin-resistant Staphylococcus aureus 92-1191 by standard serial-dilution technique

Q: How did the MIC (Enterococcus faecium [1]) turn out when `CN[C@H](CC(C)C)C(=O)N[C@H]1C(=O)N[C@@H](CC(N)=O)C(=O)N[C@H]2C(=O)N[C@H]3C(=O)N[C@H](C(=O)N[C@H](C(=O)O)c4cc(O)cc(O)c4-c4cc3ccc4O)[C@H](O)c3ccc(c(Cl)c3)Oc3cc2cc(c3O[C@@H]2O[C@H](CO)[C@@H](O)[C@H](O)[C@H]2O[C@H]2C[C@](C)(N)[C@H](O)[C@H](C)O2)Oc2ccc(cc2Cl)[C@H]1O` [VANCOMYCIN] was run?
A: > 128 µg/mL

Q: And the MIC (Enterococcus faecium [2])?
A: > 128 µg/mL

Q: With `CC(C)[C@@H]1NC(=O)[C@@H]2[C@H](C)CCN2C(=O)CN/C(=N\[C@H](C(=O)N[C@H](C(=O)N[C@H](CC(=O)N2CCN(C(=O)OC(C)(C)C)CC2)c2nccs2)[C@@H](C)c2ccccc2)C(C)(C)C)[C@H](C(C)(C)C)NC1=O` as the compound, how does the Activity (Staphylococcus aureus [3]) read?
A: 42%

Q: What about the MIC (Staphylococcus aureus [4]) of the same compound?
A: 8 µg/mL (≈ 8.19 µM)

Q: What about the MIC (Staphylococcus aureus [5]) of the same compound?
A: 4 µg/mL (≈ 4.09 µM)

Q: And the MIC (Enterococcus faecium [1])?
A: 8 µg/mL (≈ 8.19 µM)

Q: What about the MIC (Enterococcus faecium [2]) of the same compound?
A: 4 µg/mL (≈ 4.09 µM)

Q: And the MIC (Staphylococcus aureus [6])?
A: 8 µg/mL (≈ 8.19 µM)

Q: And the MIC (Staphylococcus aureus [7])?
A: 8 µg/mL (≈ 8.19 µM)

Q: What does the source list for `CC(C)[C@@H]1NC(=O)[C@@H]2[C@H](C)CCN2C(=O)CN/C(=N\[C@H](C(=O)N[C@H](C(=O)N[C@H](CC(=O)NN)c2nccs2)[C@@H](C)c2ccccc2)C(C)(C)C)[C@H](C(C)(C)C)NC1=O`?
A: Activity (Staphylococcus aureus [3]): 86%; MIC (Staphylococcus aureus [4]): 16 µg/mL (≈ 19.4 µM); MIC (Staphylococcus aureus [5]): 16 µg/mL (≈ 19.4 µM); MIC (Enterococcus faecium [1]): 8 µg/mL (≈ 9.72 µM); MIC (Enterococcus faecium [2]): 4 µg/mL (≈ 4.86 µM); MIC (Staphylococcus aureus [6]): 16 µg/mL (≈ 19.4 µM); MIC (Staphylococcus aureus [7]): 32 µg/mL (≈ 38.9 µM)

Q: `CC(C)[C@@H]1NC(=O)[C@@H]2[C@H](C)CCN2C(=O)CN/C(=N\[C@H](C(=O)N[C@H](C(=O)N[C@H](CC(=O)N2CCN(Cc3ccccc3)CC2)c2nccs2)[C@@H](C)c2ccccc2)C(C)(C)C)[C@H](C(C)(C)C)NC1=O` was tested. Which Activity (Staphylococcus aureus [3]) did it give?
A: 84%

Q: And the MIC (Staphylococcus aureus [4])?
A: 4 µg/mL (≈ 4.14 µM)

Q: What about the MIC (Staphylococcus aureus [5]) of the same compound?
A: 4 µg/mL (≈ 4.14 µM)

Q: And the MIC (Enterococcus faecium [1])?
A: 4 µg/mL (≈ 4.14 µM)

Q: What about the MIC (Enterococcus faecium [2]) of the same compound?
A: 4 µg/mL (≈ 4.14 µM)

Q: And the MIC (Staphylococcus aureus [6])?
A: 4 µg/mL (≈ 4.14 µM)

Q: And the MIC (Staphylococcus aureus [7])?
A: 4 µg/mL (≈ 4.14 µM)

Q: `CC(C)[C@@H]1NC(=O)[C@@H]2[C@H](C)CCN2C(=O)CN/C(=N\[C@H](C(=O)N[C@H](C(=O)N[C@H](CC(=O)N2CCSC2)c2nccs2)[C@@H](C)c2ccccc2)C(C)(C)C)[C@H](C(C)(C)C)NC1=O` was tested. Which Activity (Staphylococcus aureus [3]) did it give?
A: 100%

Q: What about the MIC (Staphylococcus aureus [4]) of the same compound?
A: 4 µg/mL (≈ 4.54 µM)

Q: And the MIC (Staphylococcus aureus [5])?
A: 4 µg/mL (≈ 4.54 µM)

Q: And the MIC (Enterococcus faecium [1])?
A: 8 µg/mL (≈ 9.09 µM)

Q: What about the MIC (Enterococcus faecium [2]) of the same compound?
A: 2 µg/mL (≈ 2.27 µM)

Q: And the MIC (Staphylococcus aureus [6])?
A: 8 µg/mL (≈ 9.09 µM)

Q: And the MIC (Staphylococcus aureus [7])?
A: 8 µg/mL (≈ 9.09 µM)

Q: `CC(C)[C@@H]1NC(=O)[C@@H]2[C@H](C)CCN2C(=O)CN/C(=N\[C@H](C(=O)N[C@H](C(=O)N[C@H](CNC(=O)NCc2ccccc2)c2nccs2)[C@@H](C)c2ccccc2)C(C)(C)C)[C@H](C(C)(C)C)NC1=O` was tested. Which Activity (Staphylococcus aureus [3]) did it give?
A: 100%

Q: What about the MIC (Staphylococcus aureus [4]) of the same compound?
A: 8 µg/mL (≈ 8.76 µM)

Q: And the MIC (Staphylococcus aureus [5])?
A: 16 µg/mL (≈ 17.5 µM)

Q: What about the MIC (Enterococcus faecium [1]) of the same compound?
A: 8 µg/mL (≈ 8.76 µM)

Q: And the MIC (Enterococcus faecium [2])?
A: 4 µg/mL (≈ 4.38 µM)

Q: And the MIC (Staphylococcus aureus [6])?
A: 16 µg/mL (≈ 17.5 µM)

Q: What about the MIC (Staphylococcus aureus [7]) of the same compound?
A: 16 µg/mL (≈ 17.5 µM)

Q: `CC(C)[C@@H]1NC(=O)[C@@H]2[C@H](C)CCN2C(=O)CN/C(=N\[C@H](C(=O)N[C@H](C(=O)N[C@H](CC(=O)O)c2nccs2)[C@@H](C)c2ccccc2)C(C)(C)C)[C@H](C(C)(C)C)NC1=O` was tested. Which MIC (Staphylococcus aureus [4]) did it give?
A: 64 µg/mL (≈ 79.1 µM)

Q: And the MIC (Staphylococcus aureus [5])?
A: 64 µg/mL (≈ 79.1 µM)

Q: What about the MIC (Enterococcus faecium [1]) of the same compound?
A: 128 µg/mL (≈ 158 µM)

Q: What about the MIC (Enterococcus faecium [2]) of the same compound?
A: 32 µg/mL (≈ 39.6 µM)

Q: And the MIC (Staphylococcus aureus [6])?
A: 64 µg/mL (≈ 79.1 µM)

Q: And the MIC (Staphylococcus aureus [7])?
A: 128 µg/mL (≈ 158 µM)

Q: How did the Activity (Staphylococcus aureus [3]) turn out when `COC(=O)C[C@@H](NC(=O)[C@@H](NC(=O)[C@@H](/N=C1\NCC(=O)N2CC[C@@H](C)[C@H]2C(=O)N[C@@H](C(C)C)C(=O)N[C@H]1C(C)(C)C)C(C)(C)C)[C@@H](C)c1ccccc1)c1nccs1` was run?
A: 0%

Q: And the MIC (Staphylococcus aureus [4])?
A: 1 µg/mL (≈ 1.21 µM)

Q: And the MIC (Staphylococcus aureus [5])?
A: 1 µg/mL (≈ 1.21 µM)

Q: What about the MIC (Enterococcus faecium [1]) of the same compound?
A: 1 µg/mL (≈ 1.21 µM)

Q: And the MIC (Enterococcus faecium [2])?
A: 0.5 µg/mL (≈ 0.607 µM)

Q: And the MIC (Staphylococcus aureus [6])?
A: 1 µg/mL (≈ 1.21 µM)

Q: And the MIC (Staphylococcus aureus [7])?
A: 2 µg/mL (≈ 2.43 µM)

Q: With `CCCC(=O)C[C@@H](NC(=O)[C@@H](NC(=O)[C@@H](/N=C1\NCC(=O)N2CC[C@@H](C)[C@H]2C(=O)N[C@@H](C(C)C)C(=O)N[C@H]1C(C)(C)C)C(C)(C)C)[C@@H](C)c1ccccc1)c1nccs1` as the compound, how does the Activity (Staphylococcus aureus [3]) read?
A: 100%

Q: What about the MIC (Staphylococcus aureus [4]) of the same compound?
A: 1 µg/mL (≈ 1.2 µM)

Q: And the MIC (Staphylococcus aureus [5])?
A: 1 µg/mL (≈ 1.2 µM)

Q: And the MIC (Enterococcus faecium [1])?
A: 2 µg/mL (≈ 2.39 µM)

Q: And the MIC (Enterococcus faecium [2])?
A: 0.5 µg/mL (≈ 0.599 µM)

Q: And the MIC (Staphylococcus aureus [6])?
A: 1 µg/mL (≈ 1.2 µM)

Q: And the MIC (Staphylococcus aureus [7])?
A: 2 µg/mL (≈ 2.39 µM)

Q: For `CC(C)[C@@H]1NC(=O)[C@@H]2[C@H](C)CCN2C(=O)CN/C(=N\[C@H](C(=O)N[C@H](C(=O)N[C@H](CNC(=O)N2CCSC2)c2nccs2)[C@@H](C)c2ccccc2)C(C)(C)C)[C@H](C(C)(C)C)NC1=O`, which Activity (Staphylococcus aureus [3]) is on record?
A: 100%

Q: And the MIC (Staphylococcus aureus [4])?
A: 4 µg/mL (≈ 4.47 µM)

Q: What about the MIC (Staphylococcus aureus [5]) of the same compound?
A: 4 µg/mL (≈ 4.47 µM)

Q: And the MIC (Enterococcus faecium [1])?
A: 4 µg/mL (≈ 4.47 µM)

Q: What about the MIC (Enterococcus faecium [2]) of the same compound?
A: 2 µg/mL (≈ 2.23 µM)

Q: And the MIC (Staphylococcus aureus [6])?
A: 4 µg/mL (≈ 4.47 µM)

Q: What about the MIC (Staphylococcus aureus [7]) of the same compound?
A: 4 µg/mL (≈ 4.47 µM)
